Calls of active or inactive are those of the source. The calls are words filed in the database; no cut-off is given here.
Tests used:
[1] = molecular target: T1, Peroxisome proliferator-activated receptor gamma (Homo sapiens, UniProt P37231); test: Displacement of [3H]2AD-5075 from GST-tagged human PPARgamma receptor expressed in Escherichia coli BL21
T1 sequence (P37231 whole entry): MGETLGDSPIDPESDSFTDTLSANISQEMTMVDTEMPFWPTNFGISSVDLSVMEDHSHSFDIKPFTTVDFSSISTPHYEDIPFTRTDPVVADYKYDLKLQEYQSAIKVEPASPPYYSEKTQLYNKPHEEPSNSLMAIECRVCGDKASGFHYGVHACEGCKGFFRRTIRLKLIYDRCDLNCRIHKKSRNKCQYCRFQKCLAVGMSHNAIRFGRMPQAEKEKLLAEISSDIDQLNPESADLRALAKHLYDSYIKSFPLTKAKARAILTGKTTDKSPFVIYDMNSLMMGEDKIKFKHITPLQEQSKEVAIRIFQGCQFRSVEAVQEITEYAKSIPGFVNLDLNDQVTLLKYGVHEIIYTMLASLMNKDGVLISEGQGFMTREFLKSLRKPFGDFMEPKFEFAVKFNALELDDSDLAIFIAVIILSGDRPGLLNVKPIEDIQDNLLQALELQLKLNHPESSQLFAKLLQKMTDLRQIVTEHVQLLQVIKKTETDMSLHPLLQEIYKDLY

[2] = molecular target: T1, Peroxisome proliferator-activated receptor gamma; test: Agonist activity at human PPARgamma receptor expressed in african green monkey COS cells after 48 hrs by GAL4 transactivation assay; assay type: functional, cell-based
[3] = molecular target: Peroxisome proliferator-activated receptor alpha (Homo sapiens) (UniProt Q07869); test: (§1) Binding affinity to human PPARalpha
[4] = molecular target: T2, Peroxisome proliferator-activated receptor alpha (Mus musculus) (UniProt P23204); test: Binding affinity to mouse PPARalpha
T2 sequence (whole entry): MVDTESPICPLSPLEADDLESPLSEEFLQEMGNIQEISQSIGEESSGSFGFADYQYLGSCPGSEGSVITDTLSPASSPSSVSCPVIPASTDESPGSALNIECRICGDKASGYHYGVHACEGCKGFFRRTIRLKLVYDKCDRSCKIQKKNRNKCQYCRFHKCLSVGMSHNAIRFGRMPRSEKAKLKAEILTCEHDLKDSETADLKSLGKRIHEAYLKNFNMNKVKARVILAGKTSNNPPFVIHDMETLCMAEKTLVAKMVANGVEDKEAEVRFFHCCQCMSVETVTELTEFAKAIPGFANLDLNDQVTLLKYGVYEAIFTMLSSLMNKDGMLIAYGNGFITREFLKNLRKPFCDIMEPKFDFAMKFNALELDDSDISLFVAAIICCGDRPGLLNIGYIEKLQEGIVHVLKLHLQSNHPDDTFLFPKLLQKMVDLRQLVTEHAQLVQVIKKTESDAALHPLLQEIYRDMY

[5] = molecular target: T3, Peroxisome proliferator-activated receptor delta (Homo sapiens, UniProt Q03181); test: Binding affinity to PPARdelta
T3 sequence (Q03181 whole entry): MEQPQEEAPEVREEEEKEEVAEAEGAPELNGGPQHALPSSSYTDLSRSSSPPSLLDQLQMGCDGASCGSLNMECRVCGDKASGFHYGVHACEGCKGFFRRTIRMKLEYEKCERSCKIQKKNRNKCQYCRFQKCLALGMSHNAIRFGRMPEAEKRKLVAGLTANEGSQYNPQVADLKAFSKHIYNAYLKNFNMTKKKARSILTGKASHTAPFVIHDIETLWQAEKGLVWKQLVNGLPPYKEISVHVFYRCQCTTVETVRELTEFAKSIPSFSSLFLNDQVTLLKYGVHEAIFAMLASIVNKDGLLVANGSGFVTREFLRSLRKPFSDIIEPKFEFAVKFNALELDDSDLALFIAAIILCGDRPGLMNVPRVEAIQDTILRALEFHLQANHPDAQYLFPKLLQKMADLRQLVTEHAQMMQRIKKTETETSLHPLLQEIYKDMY

[6] = molecular target: T4, Peroxisome proliferator-activated receptor alpha (Homo sapiens, UniProt Q07869); test: as §1
T4 sequence (Q07869 whole entry): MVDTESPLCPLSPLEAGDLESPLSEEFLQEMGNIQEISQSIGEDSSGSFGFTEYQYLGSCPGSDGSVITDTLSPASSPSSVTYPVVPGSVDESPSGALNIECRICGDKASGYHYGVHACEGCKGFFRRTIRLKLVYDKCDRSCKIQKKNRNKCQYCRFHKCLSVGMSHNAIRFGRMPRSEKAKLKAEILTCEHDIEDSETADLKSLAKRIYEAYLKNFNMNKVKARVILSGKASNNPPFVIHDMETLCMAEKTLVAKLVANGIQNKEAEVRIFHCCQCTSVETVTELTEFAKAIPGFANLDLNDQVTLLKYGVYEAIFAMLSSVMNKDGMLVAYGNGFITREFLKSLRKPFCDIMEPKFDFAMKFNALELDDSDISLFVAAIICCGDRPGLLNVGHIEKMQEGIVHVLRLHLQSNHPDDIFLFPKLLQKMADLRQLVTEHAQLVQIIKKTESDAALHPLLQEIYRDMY

[7] = Clearance in Sprague-Dawley rat at 0.5 mg, iv and 2.0 mg, po; assay type: ADME, organism-based; conditions: in vivo
[8] = Half life in Sprague-Dawley rat at 0.5 mg, iv and 2.0 mg, po; assay type: ADME, organism-based; conditions: in vivo
[9] = Bioavailability in Sprague-Dawley rat at 0.5 mg, iv and 2.0 mg, po; assay type: ADME, organism-based; conditions: in vivo
Mus musculus [10] = test: Antiglycemic activity in db/db mouse assessed as glucose correction at 10 mg/kg, po administered daily for 11 days; assay type: functional
Cytochrome P450 2C9 = Cytochrome P450 2C9 (Homo sapiens, UniProt P11712); test: Inhibition of CYP2C9; assay type: ADME
Sequence of Cytochrome P450 2C9 (P11712 whole entry): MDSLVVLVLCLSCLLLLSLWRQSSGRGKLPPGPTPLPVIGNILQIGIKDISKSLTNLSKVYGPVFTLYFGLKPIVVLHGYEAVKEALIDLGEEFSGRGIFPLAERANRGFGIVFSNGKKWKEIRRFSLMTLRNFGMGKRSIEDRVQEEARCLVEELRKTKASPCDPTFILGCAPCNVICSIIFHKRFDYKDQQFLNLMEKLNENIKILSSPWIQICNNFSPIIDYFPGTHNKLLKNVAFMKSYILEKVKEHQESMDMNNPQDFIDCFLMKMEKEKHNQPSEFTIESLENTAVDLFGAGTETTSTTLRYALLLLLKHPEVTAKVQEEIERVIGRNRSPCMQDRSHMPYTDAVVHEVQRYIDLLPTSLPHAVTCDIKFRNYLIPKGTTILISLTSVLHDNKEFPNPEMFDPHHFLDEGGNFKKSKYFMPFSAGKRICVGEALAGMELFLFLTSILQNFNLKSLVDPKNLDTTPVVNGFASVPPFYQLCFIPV

Mus musculus [11] = test: Antiglycemic activity in db/db mouse assessed as glucose correction at 30 mg/kg, po administered daily for 11 days; assay type: functional
Mus musculus [12] = test: Antiglycemic activity in db/db mouse assessed as glucose correction at 50 mg/kg, po administered daily for 11 days; assay type: functional
Mus musculus [13] = test: Antiglycemic activity in db/db mouse assessed as glucose correction at 20 mg/kg, po administered daily for 11 days; assay type: functional
Cytochrome P450 3A4 = Cytochrome P450 3A4 (Homo sapiens, UniProt P08684); test: Inhibition of CYP3A4; assay type: ADME
Sequence of Cytochrome P450 3A4 (P08684 whole entry): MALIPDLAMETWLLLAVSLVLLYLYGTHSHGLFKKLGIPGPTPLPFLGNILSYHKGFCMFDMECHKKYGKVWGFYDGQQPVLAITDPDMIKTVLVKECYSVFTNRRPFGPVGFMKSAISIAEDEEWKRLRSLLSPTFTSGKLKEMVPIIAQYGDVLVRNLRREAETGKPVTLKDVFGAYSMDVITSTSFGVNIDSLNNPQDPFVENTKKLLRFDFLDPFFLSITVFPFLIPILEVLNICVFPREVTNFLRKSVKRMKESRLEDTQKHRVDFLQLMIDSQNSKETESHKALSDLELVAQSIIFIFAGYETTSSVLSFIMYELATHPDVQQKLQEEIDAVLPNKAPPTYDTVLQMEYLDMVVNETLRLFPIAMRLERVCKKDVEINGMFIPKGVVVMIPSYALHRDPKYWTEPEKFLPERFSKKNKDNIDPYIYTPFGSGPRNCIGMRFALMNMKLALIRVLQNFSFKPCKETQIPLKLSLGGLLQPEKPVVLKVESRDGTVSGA

[14] = molecular target: Thromboxane A2 receptor (Homo sapiens) (UniProt P21731); test: Inhibition of TXA2 receptor at 10 uM
Sequence of Thromboxane A2 receptor (Homo sapiens) (P21731 whole entry): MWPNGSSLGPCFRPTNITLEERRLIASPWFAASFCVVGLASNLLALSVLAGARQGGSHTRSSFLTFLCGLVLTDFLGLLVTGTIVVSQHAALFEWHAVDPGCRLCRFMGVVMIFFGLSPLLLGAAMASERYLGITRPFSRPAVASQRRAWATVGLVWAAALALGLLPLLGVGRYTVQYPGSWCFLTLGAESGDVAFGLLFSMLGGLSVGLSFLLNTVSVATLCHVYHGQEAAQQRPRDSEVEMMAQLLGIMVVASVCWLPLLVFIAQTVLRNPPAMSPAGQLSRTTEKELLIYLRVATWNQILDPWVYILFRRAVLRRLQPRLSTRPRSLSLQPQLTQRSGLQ

| SMILES | IC50 [1] | EC50 [2] | Activity [3] | Activity [4] | IC50 [5] | IC50 [6] | clearance [7] | half-life [8] | bioavailability [9] | Activity (Mus musculus [10]) | IC50 (Cytochrome P450 2C9) | Activity (Mus musculus [11]) | Activity (Mus musculus [12]) | %max [4] | Activity (Mus musculus [13]) | IC50 (Cytochrome P450 3A4) | inhibition [14] |
| --- | --- | --- | --- | --- | --- | --- | --- | --- | --- | --- | --- | --- | --- | --- | --- | --- | --- |
| COc1ccc(C(=O)c2c(C)n(Cc3cccc(O[C@H](C)C(=O)O)c3)c3ncccc23)cc1 | 726 nM | 2930 nM | Active | Active | > 50000 nM | – | – | – | – | – | – | – | – | – | – | – | – |
| Cc1c(Oc2ccc(Cl)cc2)c2ccc(F)nc2n1Cc1ccc(F)c(O[C@@H](C)C(=O)O)c1 | 23 nM | 94 nM | – | – | > 50000 nM | > 50000 nM | – | – | – | – | – | – | – | – | – | – | – |
| COc1ccc(C(=O)c2c(C)n(Cc3cccc(O[C@@H](C)C(=O)O)c3)c3nc(C)ccc23)cc1 | 16 nM | 9 nM | – | – | > 50000 nM | > 50000 nM | 28 mL/min/kg | 2.4 h | 80% | 42% | – | – | – | – | – | – | – |
| Cc1c(C(=O)c2ccc(Cl)cc2)c2ccc(OC(F)(F)F)cc2n1Cc1cccc(O[C@@H](C)C(=O)O)c1 | 1 nM | 1 nM | – | – | – | – | 21.7 mL/min/kg | 1.5 h | 45% | – | 5600 nM | – | – | – | – | – | – |
| Cc1c(Oc2ccc(Cl)cc2)c2ccc(F)nc2n1Cc1cc(O[C@@H](C)C(=O)O)ccc1Cl | 15 nM | 4 nM | – | – | > 50000 nM | > 50000 nM | – | – | – | – | – | – | – | – | – | – | – |
| Cc1c(Oc2ccc(Cl)cc2)c2cccnc2n1Cc1cc(O[C@@H](C)C(=O)O)ccc1F | 54 nM | 156 nM | – | – | > 50000 nM | > 50000 nM | 22.1 mL/min/kg | 1.6 h | 77% | – | – | – | – | – | – | – | – |
| COc1ccc(C(=O)c2c(C)n(Cc3cc(O[C@@H](C)C(=O)O)ccc3F)c3nc(OC)ccc23)cc1 | 2 nM | 1 nM | – | – | > 50000 nM | > 50000 nM | 7.4 mL/min/kg | 1.4 h | 37% | 33% | – | 35% | 34% | – | – | – | – |
| COc1ccc(C(=O)c2c(C)n(Cc3cc(O[C@@H](C)C(=O)O)ccc3F)c3nc(C)ccc23)cc1 | 4 nM | 2 nM | – | 500 nM | – | – | 32 mL/min/kg | 1.9 h | 105% | 63% | – | – | – | 28% | – | – | – |
| COc1ccc(C(=O)c2c(C)n(Cc3ccc(F)c(O[C@@H](C)C(=O)O)c3)c3ncccc23)cc1 | 10 nM | 3 nM | – | – | > 50000 nM | > 50000 nM | – | – | – | – | – | – | – | – | – | – | – |
| Cc1c(Oc2ccc(Cl)cc2)c2ccc(F)nc2n1Cc1ccc(Cl)c(O[C@@H](C)C(=O)O)c1 | 3 nM | 4 nM | – | – | > 50000 nM | > 50000 nM | 23 mL/min/kg | 0.8 h | 47% | – | – | 30% | – | – | – | – | – |
| Cc1c(Oc2ccc(Cl)cc2)c2ccc(C(F)(F)F)nc2n1Cc1ccc(Cl)c(O[C@@H](C)C(=O)O)c1 | 22 nM | 23 nM | – | – | > 50000 nM | > 50000 nM | 12.4 mL/min/kg | 1.9 h | 61% | – | – | – | 56% | – | 18% | – | – |
| Cc1c(Oc2ccc(Cl)cc2)c2cccnc2n1Cc1ccc(F)c(O[C@@H](C)C(=O)O)c1 | 106 nM | 140 nM | – | – | > 50000 nM | > 50000 nM | – | – | – | – | – | – | – | – | – | – | – |
| CN(CCOc1ccc(CC2SC(=O)NC2=O)cc1)c1ccccn1 (stereo unspecified) [ROSIGLITAZONE] | – | – | – | – | – | – | – | – | – | 90% | – | – | – | – | – | – | – |
| COc1ccc(C(=O)c2c(C)n(Cc3cc(O[C@@H](C)C(=O)O)ccc3Cl)c3nc(OC)ccc23)cc1 | 2 nM | 2 nM | – | – | > 50000 nM | > 50000 nM | – | – | – | – | – | 32% | – | – | – | – | – |
| COc1ccc(C(=O)c2c(C)n(Cc3ccc(F)c(O[C@@H](C)C(=O)O)c3)c3nc(OC)ccc23)cc1 | 1 nM | 1 nM | 489 nM | 222 nM | – | – | – | – | – | 23% | – | – | – | – | – | – | – |
| COc1ccc(C(=O)c2c(C)n(Cc3cccc(O[C@@H](C)C(=O)O)c3)c3ncccc23)cc1 | 66 nM | 27 nM | – | – | > 50000 nM | > 50000 nM | 115 mL/min/kg | 2 h | 29% | 29% | – | – | – | – | – | > 100000 nM | – |
| COc1ccc(C(=O)c2c(C)n(Cc3cc(O[C@@H](C)C(=O)O)ccc3F)c3ncccc23)cc1 | 5 nM | 3 nM | – | – | > 50000 nM | > 50000 nM | 31.7 mL/min/kg | 1.8 h | 51% | – | – | – | – | – | 44% | – | 64% |
| Cc1c(Oc2ccc(Cl)cc2)c2ccc(Cl)nc2n1Cc1ccc(Cl)c(O[C@@H](C)C(=O)O)c1 | 3 nM | 4 nM | – | – | > 50000 nM | > 50000 nM | 27 mL/min/kg | 1.2 h | 56% | 32% | – | 44% | – | – | – | – | – |
| Cc1c(Oc2ccc(Cl)cc2)c2cccnc2n1Cc1cc(O[C@@H](C)C(=O)O)ccc1Cl | 25 nM | 36 nM | – | – | > 50000 nM | > 50000 nM | 21.8 mL/min/kg | 1.2 h | 61% | – | – | – | – | – | – | – | – |
| COc1ccc(C(=O)c2c(C)n(Cc3ccc(Cl)c(O[C@@H](C)C(=O)O)c3)c3nc(OC)ccc23)cc1 | < 1 nM | 1 nM | – | – | > 50000 nM | > 50000 nM | – | – | – | – | – | – | – | – | – | – | – |

Reference: ChEMBL document CHEMBL1139415, “Highly functionalized 7-azaindoles as selective PPAR gamma modulators” (Bioorg Med Chem Lett, 2008)
